“Also recorded” adds a separate entry of the source.
Test system: SKOV3
Assay: SKOV3 ovarian tumor model, C4-27z CAR-T cells plus exogenous cytokines
Format: in vivo, NSG mice
Settings: for antitumor efficacy of cytokine in combination with CAR-T cell injection: 5 μg daily i.p. for 7 days with 5×10^6 C4-27z CAR-T cells

Row | Substance | antitumor efficacy of cytokine in combination with CAR-T cell injection | CD4+ and CD8+ T cells in peripheral blood (15 days after adoptive transfer) | human T cell number in the tumor (73 days after tumor challenge)
1 | IL-15: common γ-chain family cytokine, exogenous | best tumor suppression | Highest numbers of CD4+ and CD8+ T cells | highest T cell number in the tumor
2 | IL-18: immunostimulatory, proinflammatory cytokine belonging to the IL-1 family | heaviest tumor burden; also recorded: no enhanced effect on antitumor efficacy |  | 
3 | IL-21: common γ-chain family cytokine, exogenous | best tumor suppression |  | 
